The supplement of paper PMC10627819

What was measured:
S. aureus DSM 20231 [1] = test: fitness (endpoint OD595 vs no drug) (fraction); higher = more growth
In short: (§1)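 Growth medium was TSB, LB Lennox or CY, and plates were kept at 37 °C. Inoculation was at OD595 0.01 in 384-well plates, at 30 µl per well or 55 µl for S. pneumoniae. OD595 was monitored every 30 min for 14 h and background-subtracted using the first reading. Fitness is the optical density on entering stationary phase divided by the robust mean of no-drug controls, with values capped at 1.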

S. aureus Newman [2] = test: as above
In short: as §1

B. subtilis 168 [3] = test: as above
In short: as §1

S. pneumoniae D39V [4] = test: as above
In short: as §1

S. aureus DSM 20231 [5] = test: Bliss interaction score (quartile over a dose matrix) (fitness difference); higher = more antagonism (negative = synergy)
In short: (§2)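 Fitness here means normalised growth, inferred for single drugs from the combination data. Growth was OD595 at entry into stationary phase, divided by the plate's robust no-drug mean and capped at 1. The Bliss score is observed minus expected fitness, with the expectation being the product, and its quartiles span technical, biological and donor/recipient replicates.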

S. aureus Newman [6] = test: as above
In short: as §2

B. subtilis 168 [7] = test: as above
In short: as §2

S. pneumoniae D39V [8] = test: as above
In short: as §2
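Wherever Bliss interaction score (quartile over a dose matrix) is given: first quartile when negative (synergy) and third quartile when positive (antagonism).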
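Wherever fitness (endpoint OD595 vs no drug) is given: OD595 on entry to stationary phase over no-drug wells; at most 1.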

CCN(CC)CCOC(=O)c1ccc(N)cc1 [Procaine] + CN[C@@H]1[C@H](O)[C@H](NC)[C@H]2O[C@@]3(O)C(=O)C[C@@H](C)O[C@H]3O[C@@H]2[C@H]1O [Spectinomycin]
fitness
Details	first compound 85.5 µg/mL	first compound 171 µg/mL	first compound 342 µg/mL
B. subtilis 168 [3], partner 2 µg/mL	0.972	0.926	0.923
B. subtilis 168 [3], partner 4 µg/mL	0.938	0.963	0.93
B. subtilis 168 [3], partner 8 µg/mL	0.895	0.84	0.824
S. aureus DSM 20231 [1], partner 4 µg/mL	0.959	0.931	0.914
S. aureus DSM 20231 [1], partner 8 µg/mL	0.948	0.911	0.928
S. aureus DSM 20231 [1], partner 16 µg/mL	0.82	0.848	0.868
S. aureus Newman [2], partner 4 µg/mL	0.886	0.891	0.89
S. aureus Newman [2], partner 8 µg/mL	≥ 1	0.968	0.962
S. aureus Newman [2], partner 16 µg/mL	0.896	0.905	0.88
S. pneumoniae D39V [4], partner 4 µg/mL	≥ 1	0.973	0.914
S. pneumoniae D39V [4], partner 8 µg/mL	0.964	0.955	0.929

fitness, one replicate
Details	first compound 85.5 µg/mL	first compound 171 µg/mL	first compound 342 µg/mL
S. aureus DSM 20231 [1], partner 32 µg/mL	0.744	0.724	0.813
S. aureus DSM 20231 [1], partner 64 µg/mL	0.0918	0.0696	0.107
S. aureus Newman [2], partner 32 µg/mL	0.678	0.652	0.629
S. aureus Newman [2], partner 64 µg/mL	0.139	0.132	0.147
S. pneumoniae D39V [4], partner 16 µg/mL	0.866	0.857	0.849

Details	Bliss interaction score
B. subtilis 168 [7]	-0.0468
S. aureus DSM 20231 [5]	0.0496
S. aureus Newman [6]	0.0891
S. pneumoniae D39V [8]	0.0382

CCCCCCCCCC(=O)N[C@@H](Cc1c[nH]c2ccccc12)C(=O)N[C@H](CC(N)=O)C(=O)N[C@@H](CC(=O)O)C(=O)N[C@@H]1C(=O)NCC(=O)N[C@@H](CCCN)C(=O)N[C@@H](CC(=O)O)C(=O)N[C@H](C)C(=O)N[C@@H](CC(=O)O)C(=O)NCC(=O)N[C@H](CO)C(=O)N[C@@H]([C@H](C)CC(=O)O)C(=O)N[C@@H](CC(=O)c2ccccc2N)C(=O)O[C@@H]1C [Daptomycin] + COc1c(N2C[C@@H]3CCCN[C@@H]3C2)c(F)cc2c(=O)c(C(=O)O)cn(C3CC3)c12 [Moxifloxacin]
Details	fitness
B. subtilis 168 [3], first compound 0.125 µg/mL, partner 0.0312 µg/mL	0.0461
B. subtilis 168 [3], first compound 0.125 µg/mL, partner 0.0625 µg/mL	0.0437
B. subtilis 168 [3], first compound 0.125 µg/mL, partner 0.125 µg/mL	0.0394
B. subtilis 168 [3], first compound 0.125 µg/mL, partner 2 µg/mL	0.0342
B. subtilis 168 [3], first compound 0.125 µg/mL, partner 4 µg/mL	0.0583
B. subtilis 168 [3], first compound 0.125 µg/mL, partner 8 µg/mL	0.0431
B. subtilis 168 [3], first compound 0.25 µg/mL, partner 0.0312 µg/mL	0.0537
B. subtilis 168 [3], first compound 0.25 µg/mL, partner 0.0625 µg/mL	0.0246
B. subtilis 168 [3], first compound 0.25 µg/mL, partner 0.125 µg/mL	0.019
B. subtilis 168 [3], first compound 0.25 µg/mL, partner 2 µg/mL	0.0893
B. subtilis 168 [3], first compound 0.25 µg/mL, partner 4 µg/mL	0.0796
B. subtilis 168 [3], first compound 0.25 µg/mL, partner 8 µg/mL	0.124
B. subtilis 168 [3], first compound 0.5 µg/mL, partner 0.0312 µg/mL	0.0547
B. subtilis 168 [3], first compound 0.5 µg/mL, partner 0.0625 µg/mL	0.026
B. subtilis 168 [3], first compound 0.5 µg/mL, partner 0.125 µg/mL	0.0309
B. subtilis 168 [3], first compound 0.5 µg/mL, partner 2 µg/mL	0.0708
B. subtilis 168 [3], first compound 0.5 µg/mL, partner 4 µg/mL	0.044
B. subtilis 168 [3], first compound 0.5 µg/mL, partner 8 µg/mL	0.0672
S. aureus DSM 20231 [1], first compound 0.5 µg/mL, partner 0.0075 µg/mL	0.776
S. aureus DSM 20231 [1], first compound 0.5 µg/mL, partner 0.015 µg/mL	0.754
S. aureus DSM 20231 [1], first compound 0.5 µg/mL, partner 0.03 µg/mL	0.673
S. aureus DSM 20231 [1], first compound 1 µg/mL, partner 0.0075 µg/mL	0.837
S. aureus DSM 20231 [1], first compound 1 µg/mL, partner 0.015 µg/mL	0.786
S. aureus DSM 20231 [1], first compound 1 µg/mL, partner 0.03 µg/mL	0.696
S. aureus DSM 20231 [1], first compound 2 µg/mL, partner 0.0075 µg/mL	0.761
S. aureus DSM 20231 [1], first compound 2 µg/mL, partner 0.015 µg/mL	0.749
S. aureus DSM 20231 [1], first compound 2 µg/mL, partner 0.03 µg/mL	0.655
S. aureus Newman [2], first compound 0.125 µg/mL, partner 0.0075 µg/mL	0.751
S. aureus Newman [2], first compound 0.25 µg/mL, partner 0.0075 µg/mL	0.744
S. aureus Newman [2], first compound 0.25 µg/mL, partner 0.015 µg/mL	0.636
S. aureus Newman [2], first compound 0.5 µg/mL, partner 0.0075 µg/mL	0.774
S. pneumoniae D39V [4], first compound 1 µg/mL, partner 0.005 µg/mL	0.947
S. pneumoniae D39V [4], first compound 1 µg/mL, partner 0.01 µg/mL	0.965
S. pneumoniae D39V [4], first compound 1 µg/mL, partner 0.02 µg/mL	0.846
S. pneumoniae D39V [4], first compound 1 µg/mL, partner 0.0312 µg/mL	0.0587
S. pneumoniae D39V [4], first compound 1 µg/mL, partner 0.0625 µg/mL	0.0444
S. pneumoniae D39V [4], first compound 1 µg/mL, partner 0.125 µg/mL	0.0384
S. pneumoniae D39V [4], first compound 2 µg/mL, partner 0.005 µg/mL	0.946
S. pneumoniae D39V [4], first compound 2 µg/mL, partner 0.01 µg/mL	0.951
S. pneumoniae D39V [4], first compound 2 µg/mL, partner 0.02 µg/mL	0.826
S. pneumoniae D39V [4], first compound 2 µg/mL, partner 0.0312 µg/mL	0.0617
S. pneumoniae D39V [4], first compound 2 µg/mL, partner 0.0625 µg/mL	0.0424
S. pneumoniae D39V [4], first compound 2 µg/mL, partner 0.125 µg/mL	0.0433
S. pneumoniae D39V [4], first compound 4 µg/mL, partner 0.005 µg/mL	0.95
S. pneumoniae D39V [4], first compound 4 µg/mL, partner 0.01 µg/mL	0.988
S. pneumoniae D39V [4], first compound 4 µg/mL, partner 0.02 µg/mL	0.885
S. pneumoniae D39V [4], first compound 4 µg/mL, partner 0.0312 µg/mL	0.0587
S. pneumoniae D39V [4], first compound 4 µg/mL, partner 0.0625 µg/mL	0.0393
S. pneumoniae D39V [4], first compound 4 µg/mL, partner 0.125 µg/mL	0.0263

fitness, one replicate
Details	first compound 0.5 µg/mL	first compound 1 µg/mL	first compound 2 µg/mL
B. subtilis 168 [3], partner 0.0312 µg/mL	–	0.0152	–
B. subtilis 168 [3], partner 0.0625 µg/mL	–	0.0268	–
B. subtilis 168 [3], partner 0.125 µg/mL	–	0.0146	–
S. aureus DSM 20231 [1], partner 0.06 µg/mL	0.667	0.654	0.637
S. aureus DSM 20231 [1], partner 0.12 µg/mL	0.49	0.46	0.46

Details	Bliss interaction score
B. subtilis 168 [7]	-0.0294
S. aureus DSM 20231 [5]	-0.0667
S. aureus Newman [6]	0.0375
S. pneumoniae D39V [8]	-0.0679
